Where “and” joins values, the source holds several entries; their conditions need not be identical. Identical values can stand only once. Entries after “also recorded” stand apart in the source; their conditions may differ.
Key:
CK1α [1] = target: T1, CK1α (Homo sapiens, UniProt P48729); experiment: Western blot of CK1α in UISO cells; assay type: cell-based; details: lenalidomide 10 μM, 24 hours
Text: Of note, UISO has less MDM2 and MDM4 proteins than MKL-1.

MDM4 binding to p53 = experiment: Immunoprecipitation of MDM4, p53 and CK1α from MKL-1 lysates; assay type: cell-based; details: MKL-1 cells; nutlin-3 5 μM, lenalidomide 10 μM, 40 hours
Method: (§1) Confluent cultures of cells were washed with ice-cold phosphate-buffered saline (PBS) and resuspended in EBC lysis buffer (50 mM Tris, pH 8.0, 150 mM NaCl, 0.5% NP-40, 1:10,000-mercaptoethanol, 0.5 mM EDTA) for 10 min on ice and then centrifuged. Clarified lysates were incubated overnight with antibodies and magnetic protein A/G beads (PureProteome magnetic beads, EMD Millipore). […] Mouse monoclonal antibodies Ab3 and Ab5 against MCV T antigens were generated against MCV large T antigen residues 1 to 260 and produced as a glutathione S-transferase (GST) fusion protein in bacteria (17). Quantitative western blotting was performed using the Odyssey near-infrared system (Li-Cor Biotechnology).

MKL-1 MCC cells = experiment: XTT cell viability assay and synergy testing, MKL-1 cells; assay type: cell-based; details: 96 hours; for Response-rep1 / Response-rep2: HDM201 0 nM; for relative viability (XTT), untreated = 1: combinations with a fixed amount of Lenalidomide (5 uM), replicate columns; for Response: relative viability vs untreated
Method: Cell viability assays were performed using Cell Proliferation Kit II (XTT) (Roche) according to the manufacturer's instructions and BH3 profiling was described in Pallis et al. (36). Synergy testing was performed using Compusyn and Synergyfinder (28, 29).
The XTT assay was performed to determine the relative viability (% response) normalized to untreated cells.

MKL-1 MCC xenografts = experiment: Xenograft efficacy study; details: individual animals, oral daily, HDM201 40 mg/kg and/or lenalidomide 50 mg/kg; for Tumor Volume Change, Abs Ch = T − T0: tumor volumes in mm3
Text: The study was terminated when the tumor volume reached the maximum permissible size of 2000 mm3.

p53 = experiment: Western blot of p53 activation in MKL-1 cells; assay type: cell-based; details: 24-40 hours
Method: as §1

CK1α [2] = target: T1, CK1α; experiment: Western blot of CK1α protein levels in MKL-1 cells; assay type: cell-based; details: IMiD 10 μM
Method: Confluent cultures of cells were washed with ice-cold phosphate-buffered saline (PBS) and resuspended in EBC lysis buffer (50 mM Tris, pH 8.0, 150 mM NaCl, 0.5% NP-40, 1:10,000-mercaptoethanol, 0.5 mM EDTA) for 10 min on ice and then centrifuged. Clarified lysates were incubated overnight with antibodies and magnetic protein A/G beads (PureProteome magnetic beads, EMD Millipore). […] Quantitative western blotting was performed using the Odyssey near-infrared system (Li-Cor Biotechnology).

T1 sequence (P48729 whole entry): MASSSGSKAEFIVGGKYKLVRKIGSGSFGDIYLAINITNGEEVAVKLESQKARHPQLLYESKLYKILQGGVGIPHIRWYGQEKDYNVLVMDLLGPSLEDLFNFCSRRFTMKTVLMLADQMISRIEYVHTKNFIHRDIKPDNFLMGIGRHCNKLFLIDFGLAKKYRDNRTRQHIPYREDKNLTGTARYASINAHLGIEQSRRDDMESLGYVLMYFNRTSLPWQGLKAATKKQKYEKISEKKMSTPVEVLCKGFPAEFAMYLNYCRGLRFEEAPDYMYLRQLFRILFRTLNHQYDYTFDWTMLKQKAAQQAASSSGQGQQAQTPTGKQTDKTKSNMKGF

## Nc1cccc2c1CN(C1CCC(=O)NC1=O)C2=O (racemic) [Lenalidomide, (RS)-3-(7-Amino-3-oxo-1H-isoindol-2-yl)piperidin-2,6-dion]
CK1α [1]
  CK1α levels: depletes CK1α
CK1α [1]; listed as lenalidomide
  CK1α levels: decreased the CK1α levels
MDM4 binding to p53
  MDM4 binding to p53 (co-immunoprecipitation): reduces MDM4 binding to p53
MKL-1 MCC cells; Lenalidomide 5000 nM
  Response-rep1: 98.9539%
  Response-rep2: 97.73%
MKL-1 MCC cells; Lenalidomide 10000 nM
  Response-rep1: 83.3296%
  Response-rep2: 76.26%
MKL-1 MCC cells; Lenalidomide 15000 nM
  Response-rep1: 69.78%
  Response-rep2: 67.82%
MKL-1 MCC cells; Lenalidomide 18000 nM
  Response-rep1: 25.1812%
  Response-rep2: 49.26%
MKL-1 MCC cells; Nutlin-3 or RG7388 level 25 (unit not given)
  relative viability (XTT), untreated = 1: 1.143 and 0.8845 and 1.022
MKL-1 MCC cells; Nutlin-3 or RG7388 level 50 (unit not given)
  relative viability (XTT), untreated = 1: 1.089 and 0.9384 and 1.081
MKL-1 MCC cells; Nutlin-3 or RG7388 level 75 (unit not given)
  relative viability (XTT), untreated = 1: 1.027 and 1.061 and 1.086
MKL-1 MCC cells; Nutlin-3 or RG7388 level 90 (unit not given)
  relative viability (XTT), untreated = 1: 1.011 and 0.945 and 0.9521
MKL-1 MCC cells; Lenalidomide 5000 nM alone
  Response: 104.85%
MKL-1 MCC cells; Lenalidomide 10000 nM alone
  Response: 105.06%
MKL-1 MCC cells; Lenalidomide 15000 nM alone
  Response: 107.06%
MKL-1 MCC cells; Lenalidomide 18000 nM alone
  Response: 100.64%
MKL-1 MCC xenografts; day 0
  Tumor Volume Change, % Ch = (T − T0)/T0: 0.00%
  Tumor Volume Change, Abs Ch = T − T0: 0.00
MKL-1 MCC xenografts; day 4
  Tumor Volume Change, % Ch = (T − T0)/T0: 74.88% and 101.33% and 102.10% and 99.96% and 150.37% and 52.58% and 63.66% and 71.12%
  Tumor Volume Change, Abs Ch = T − T0: 144.53 and 151.67 and 182.72 and 171.42 and 196.53 and 107.98 and 82.85 and 113.80
MKL-1 MCC xenografts; day 7
  Tumor Volume Change, % Ch = (T − T0)/T0: 172.14% and 170.30% and 232.85% and 199.00% and 277.21% and 108.30% and 219.88% and 209.85%
  Tumor Volume Change, Abs Ch = T − T0: 332.29 and 254.90 and 416.69 and 341.29 and 362.30 and 222.38 and 286.16 and 335.77
MKL-1 MCC xenografts; day 11
  Tumor Volume Change, % Ch = (T − T0)/T0: 532.35% and 513.08% and 584.49% and 475.00% and 680.10% and 321.83% and 431.10% and 501.46%
  Tumor Volume Change, Abs Ch = T − T0: 1027.58 and 768.00 and 1045.97 and 814.62 and 888.86 and 660.89 and 561.06 and 802.36
MKL-1 MCC xenografts; day 14
  Tumor Volume Change, % Ch = (T − T0)/T0: 811.07% and 861.89% and 936.62% and 702.42% and 1182.50% and 538.29% and 804.69% and 779.36%
  Tumor Volume Change, Abs Ch = T − T0: 1565.59 and 1290.11 and 1676.13 and 1204.65 and 1545.48 and 1105.37 and 1047.26 and 1246.99
MKL-1 MCC xenografts; day 18
  Tumor Volume Change, % Ch = (T − T0)/T0: 1406.04% and 1123.01% and 1595.67% and 1146.29% and 1544.08% and 774.41% and 1719.65% and 1318.82%
  Tumor Volume Change, Abs Ch = T − T0: 2714.05 and 1680.96 and 2855.54 and 1965.88 and 2018.05 and 1590.25 and 2238.02 and 2110.15
p53
  p53 activation (p53, P-p53, Ac-p53, p21, PUMA levels): modest positive effect on p53 levels
CK1α [2]
  CK1α protein levels: reduces CK1α protein rapidly; also recorded: decreases CK1α protein levels
CK1α [2]; listed as lenalidomide
  CK1α protein levels: levels rapidly decreased

Source: patent US12115151B2, “Method of treatment of p53 WT tumors” (Dana-Farber Cancer Institute, Inc., priority 2018, dated 2024)
